According to US20250120961A1, “P53 MODULATORS” (Nested Therapeutics, Inc., priority 2023, published 2025):

target: His-tagged p53-Y220C DNA binding domain (Homo sapiens, UniProt P04637, Y220C); test: Biochemical p53-Y220C and DNA binding assay (HTRF); details: inflection point of 10 points dose titration, 4 parameter curve fit; p53-Y220C DBD 100 nM, biotinylated dsDNA 200 nM, 27 to 29° C.; read-out: HTRF IP
Source text: Biological Example 1. Biochemical p53-Y220C and DNA Binding Assay
The compounds of this invention can bind to p53-Y220C and increase the ability of the mutant p53 to bind to DNA at higher temperatures. His-tagged p53-Y220C DNA binding domain containing amino acid 94-312 is used to measure DNA binding activities in vitro with the sequence described below. (SEQ ID NO: 1: […]. Biotin labeled double strand DNA (dsDNA) containing consensus p53 binding sequence (SEQ ID NO: 2: Forward: 5′-(biotin)-[…]-3′; Reverse: 5′-(biotin)-[…]-3′) is used to measure protein-DNA binding activities. Compounds, His-tagged p53-Y220C DBD proteins (100 nM), and biotinylated dsDNA (200 nM) were mixed in ice-cold assay buffer containing DPBS, 20 mM NaCl, and 0.5% BAS, and incubated at 4° C. overnight in 384-well plate. Plates were transferred to incubator at 27 to 29° C. with constant shaking for 60 minutes. Equal volume of Homogeneous Time-Resolved Fluorescence (HTRF) dyes containing mAb anti-6HIS Tb cryptate gold and d2 labeled streptavidin in the assay buffer was added to each well and incubated at 27 to 29° C. with constant shaking for 60 minutes. The plate was read using Envision multimode plate reader. Reference compound 1 was used as high control and DMSO was used as low control. The percentage activation (A %) of protein-DNA binding by compounds was normalized by setting up high control (reference compound) as […] and low control (DMSO) as 0% (A %=(HTRF ratio of compound-HTRF ratio of low control)/(HTRF ratio of high control-HTRF ratio of low control)*500). 10 points dose titration curves for each compound were analyzed by 4 parameter curve fit and inflection point (IP) was reported. Reference compound 1 is shown below Table 1. Compounds of the invention are active in the HTRF assay. Data in Table 1 collected using Biological Example 1.

EC50 [nM] | SMILES
> 1000 | O=C(OCc1ccccc1)N1CCC(O)(CO/N=C/c2sc3c(N[C@@H]4CNC[C@@H]4F)cccc3c2CC(F)(F)F)CC1 [Example 1-25, benzyl 4-(((((E)-(7-(((3R,4S)-4-fluoropyrrolidin-3-yl)amino)-3-(2,2,2-trifluoroethyl)benzo[b]thiophen-2-yl)methylene)amino)oxy)methyl)-4-hydroxypiperidine-1-carboxylate]
> 1000 | O=C(OCc1ccccc1)N1CCC(CO)(O/N=C/c2sc3c(N[C@@H]4CNC[C@@H]4F)cccc3c2CC(F)(F)F)CC1 [Example 1-26, benzyl 4-((((E)-(7-(((3R,4S)-4-fluoropyrrolidin-3-yl)amino)-3-(2,2,2-trifluoroethyl)benzo[b]thiophen-2-yl)methylene)amino)oxy)-4-(hydroxymethyl)piperidine-1-carboxylate]
100 to 1000 | OC(CO/N=C/c1sc2c(N[C@@H]3CNC[C@@H]3F)cccc2c1CC(F)(F)F)Cn1cccn1 (stereo partly drawn) [Example 1-27, (E)-7-(((3R,4S)-4-fluoropyrrolidin-3-yl)amino)-3-(2,2,2-trifluoroethyl)benzo[b]thiophene-2-carbaldehyde O-(2-hydroxy-3-(1H-pyrazol-1-yl)propyl) oxime]
> 1000 | OCC(Cn1cccn1)O/N=C/c1sc2c(N[C@@H]3CNC[C@@H]3F)cccc2c1CC(F)(F)F (stereo partly drawn) [Example 1-28, (E)-7-(((3R,4S)-4-fluoropyrrolidin-3-yl)amino)-3-(2,2,2-trifluoroethyl)benzo[b]thiophene-2-carbaldehyde O-(1-hydroxy-3-(1H-pyrazol-1-yl)propan-2-yl) oxime]
> 1000 | OC1(CO/N=C/c2sc3c(N[C@@H]4CNC[C@@H]4F)cccc3c2CC(F)(F)F)CCCCC1 [Example 1-29, (E)-7-(((3R,4S)-4-fluoropyrrolidin-3-yl)amino)-3-(2,2,2-trifluoroethyl)benzo[b]thiophene-2-carbaldehyde O-((1-hydroxycyclohexyl)methyl) oxime]
> 1000 | OCC1(O/N=C/c2sc3c(N[C@@H]4CNC[C@@H]4F)cccc3c2CC(F)(F)F)CCCCC1 [Example 1-30, (E)-7-(((3R,4S)-4-fluoropyrrolidin-3-yl)amino)-3-(2,2,2-trifluoroethyl)benzo[b]thiophene-2-carbaldehyde O-(1-(hydroxymethyl)cyclohexyl) oxime]
> 1000 | OC1(CO/N=C\c2sc3c(N[C@@H]4CNC[C@@H]4F)cccc3c2CC(F)(F)F)CCCCC1 [Example 1-31, (Z)-7-(((3R,4S)-4-fluoropyrrolidin-3-yl)amino)-3-(2,2,2-trifluoroethyl)benzo[b]thiophene-2-carbaldehyde O-((1-hydroxycyclohexyl)methyl) oxime]
> 1000 | OC1(CO/N=C/c2sc3c(N[C@@H]4CNC[C@@H]4F)cccc3c2CC(F)(F)F)CCCNC1 (stereo partly drawn) [Example 1-32, (E)-7-(((3R,4S)-4-fluoropyrrolidin-3-yl)amino)-3-(2,2,2-trifluoroethyl)benzo[b]thiophene-2-carbaldehyde O-((3-hydroxypiperidin-3-yl)methyl) oxime]
> 1000 | OC1CNCCC1O/N=C/c1sc2c(N[C@@H]3CNC[C@@H]3F)cccc2c1CC(F)(F)F (stereo partly drawn) [Example 1-33, (E)-7-(((3R,4S)-4-fluoropyrrolidin-3-yl)amino)-3-(2,2,2-trifluoroethyl)benzo[b]thiophene-2-carbaldehyde O-(3-hydroxypiperidin-4-yl) oxime]
> 1000 | OC(COCc1ccccc1)CO/N=C/c1sc2c(N[C@@H]3CNC[C@@H]3F)cccc2c1CC(F)(F)F (stereo partly drawn) [Example 1-34, (E)-7-(((3R,4S)-4-fluoropyrrolidin-3-yl)amino)-3-(2,2,2-trifluoroethyl)benzo[b]thiophene-2-carbaldehyde O-(3-(benzyloxy)-2-hydroxypropyl) oxime]
100 to 1000 | OC1CCCCC1O/N=C/c1sc2c(N[C@@H]3CNC[C@@H]3F)cccc2c1CC(F)(F)F (stereo partly drawn) [Example 1-35, (E)-7-(((3R,4S)-4-fluoropyrrolidin-3-yl)amino)-3-(2,2,2-trifluoroethyl)benzo[b]thiophene-2-carbaldehyde O-(2-hydroxycyclohexyl) oxime]
100 to 1000 | OC1CNCC1O/N=C/c1sc2c(N[C@@H]3CNC[C@@H]3F)cccc2c1CC(F)(F)F (stereo partly drawn) [Example 1-36, (E)-7-(((3R,4S)-4-fluoropyrrolidin-3-yl)amino)-3-(2,2,2-trifluoroethyl)benzo[b]thiophene-2-carbaldehyde O-(4-hydroxypyrrolidin-3-yl) oxime]
< 100 | OC1COCC1O/N=C/c1sc2c(N[C@@H]3CNC[C@@H]3F)cccc2c1CC(F)(F)F (stereo partly drawn) [Example 1-37, (E)-7-(((3R,4S)-4-fluoropyrrolidin-3-yl)amino)-3-(2,2,2-trifluoroethyl)benzo[b]thiophene-2-carbaldehyde O-(4-hydroxytetrahydrofuran-3-yl) oxime]
100 to 1000 | CS(=O)(=O)N1CC(O)C(O/N=C/c2sc3c(N[C@@H]4CNC[C@@H]4F)cccc3c2CC(F)(F)F)C1 (stereo partly drawn) [Example 1-38, (E)-7-(((3R,4S)-4-fluoropyrrolidin-3-yl)amino)-3-(2,2,2-trifluoroethyl)benzo[b]thiophene-2-carbaldehyde O-(4-hydroxy-1-(methylsulfonyl)pyrrolidin-3-yl) oxime]
< 100 | CN1CC[C@@H](Nc2cccc3c(CC(F)(F)F)c(/C=N/OCC(C)(C)O)sc23)[C@@H](F)C1 [Example 1-39, (E)-7-(((3S,4R)-3-fluoro-1-methylpiperidin-4-yl)amino)-3-(2,2,2-trifluoroethyl)benzo[b]thiophene-2-carbaldehyde O-(2-hydroxy-2-methylpropyl) oxime]
100 to 1000 | OC1(CO/N=C/c2sc3c(N[C@@H]4CNC[C@@H]4F)cccc3c2CC(F)(F)F)CCOC1 (stereo partly drawn) [Example 1-40, (E)-7-(((3R,4S)-4-fluoropyrrolidin-3-yl)amino)-3-(2,2,2-trifluoroethyl)benzo[b]thiophene-2-carbaldehyde O-((3-hydroxytetrahydrofuran-3-yl)methyl) oxime]
> 1000 | CN1CC[C@@H](Nc2cccc3c2cc(/C=N/OCC2CC2)n3CC(F)(F)F)[C@@H](F)C1 [Example 2-1, (E)-4-(((3S,4R)-3-fluoro-1-methylpiperidin-4-yl)amino)-1-(2,2,2-trifluoroethyl)-1H-indole-2-carbaldehyde O-cyclopropylmethyl oxime]
> 1000 | CO/N=C/c1cc2c(N[C@@H]3CCN(C)C[C@@H]3F)cccc2n1CC(F)(F)F [Example 2-2, (E)-4-(((3S,4R)-3-fluoro-1-methylpiperidin-4-yl)amino)-1-(2,2,2-trifluoroethyl)-1H-indole-2-carbaldehyde O-methyl oxime]
> 1000 | CN1CC[C@@H](Nc2cccc3c2cc(/C=N/OCc2ccccc2)n3CC(F)(F)F)[C@@H](F)C1 [Example 2-3, (E)-4-(((3S,4R)-3-fluoro-1-methylpiperidin-4-yl)amino)-1-(2,2,2-trifluoroethyl)-1H-indole-2-carbaldehyde O-benzyl oxime]
> 1000 | CN1CC[C@@H](Nc2cccc3c2cc(/C=N\OCc2ccccc2)n3CC(F)(F)F)[C@@H](F)C1 [Example 2-4, (Z)-4-(((3S,4R)-3-fluoro-1-methylpiperidin-4-yl)amino)-1-(2,2,2-trifluoroethyl)-1H-indole-2-carbaldehyde O-benzyl oxime]
> 1000 | CN1CC[C@@H](Nc2cccc3c2cc(/C=N\Oc2ccccc2)n3CC(F)(F)F)[C@@H](F)C1 [Example 2-5, (Z)-4-(((3S,4R)-3-fluoro-1-methylpiperidin-4-yl)amino)-1-(2,2,2-trifluoroethyl)-1H-indole-2-carbaldehyde O-phenyl oxime]
> 1000 | CN1CC[C@@H](Nc2cccc3c2cc(/C=N/Oc2ccccc2)n3CC(F)(F)F)[C@@H](F)C1 [Example 2-6, (E)-4-(((3S,4R)-3-fluoro-1-methylpiperidin-4-yl)amino)-1-(2,2,2-trifluoroethyl)-1H-indole-2-carbaldehyde O-phenyl oxime]
> 1000 | CNC(=O)CO/N=C/c1cc2c(N[C@@H]3CCN(C)C[C@@H]3F)cccc2n1CC(F)(F)F [Example 2-7, 2-((((E)-(4-(((3S,4R)-3-fluoro-1-methylpiperidin-4-yl)amino)-1-(2,2,2-trifluoroethyl)-1H-indol-2-yl)methylene)amino)oxy)-N-methylacetamide]
100 to 1000 | CN1CC[C@@H](Nc2cccc3c2cc(/C=N/OCC(=O)Nc2ccccc2)n3CC(F)(F)F)[C@@H](F)C1 [Example 2-8, 2-((((E)-(4-(((3S,4R)-3-fluoro-1-methylpiperidin-4-yl)amino)-1-(2,2,2-trifluoroethyl)-1H-indol-2-yl)methylene)amino)oxy)-N-phenylacetamide]
